{"source": "patent US10787452B2", "about": "(Vertex Pharmaceuticals Incorporated, priority 2012, dated 2020)", "data": [{"test_system": "HCT116 colorectal cancer cells", "assay": "Cisplatin sensitization assay (96 h cell viability MTS);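 also: compound concentration needed to lower the Cisplatin-alone IC50 by a set fold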", "type": "cell-based", "conditions": "96 h MTS, compound plus Cisplatin", "summary_of_the_method": "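Viability is measured with MTS reagent, added after 96 h and developed for 1 h at 37° C. Beforehand, cells receive compound and cisplatin simultaneously in a concentration matrix of 2-fold serial dilutions starting at 10 μM final.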", "values": [{"smiles": "Cn1nccc1-c1ccncc1NC(=O)c1c(N)nn2cc(F)cnc12", "note": "[I-C-57, 2-amino-6-fluoro-N-(4-(1-methyl-1H-pyrazol-5-yl)pyridin-3-yl)pyrazolo[1,5-a]pyrimidine-3-carboxamide]", "Cisplatin Sensitization Assay": "+++ (Compounds with a Cisplatin sensitization value of <0.02 μM are marked with “+++.”)"}, {"smiles": "Cn1c(-c2ccncc2NC(=O)c2c(N)nn3cc(F)cnc23)cccc1=O", "note": "[I-C-58, 2-amino-6-fluoro-N-(1-methyl-6-oxo-1,6-dihydro-[2,4′-bipyridin]-3′-yl)pyrazolo[1,5-a]pyrimidine-3-carboxamide]", "Cisplatin Sensitization Assay": "+++ (Compounds with a Cisplatin sensitization value of <0.02 μM are marked with “+++.”)"}, {"smiles": "Cn1cc(-c2ccncc2NC(=O)c2c(N)nn3cc(F)cnc23)ccc1=O", "note": "[I-C-59, 2-amino-6-fluoro-N-(1-methyl-6-oxo-1,6-dihydro-[3,4′-bipyridin]-3′-yl)pyrazolo[1,5-a]pyrimidine-3-carboxamide]", "Cisplatin Sensitization Assay": "++ (Compounds with a Cisplatin sensitization value >0.02 μM but <0.2 μM are marked with “++.”)"}, {"smiles": "Nc1nn2cc(F)cnc2c1C(=O)Nc1cnccc1-c1ccccn1", "note": "[I-C-60, N-([2,4′-bipyridin]-3′-yl)-2-amino-6-fluoropyrazolo[1,5-a]pyrimidine-3-carboxamide]", "Cisplatin Sensitization Assay": "++ (Compounds with a Cisplatin sensitization value >0.02 μM but <0.2 μM are marked with “++.”)"}, {"smiles": "CS(=O)(=O)c1ccc(-c2ccncc2NC(=O)c2c(N)nn3cc(F)cnc23)cc1", "note": "[I-C-61, 2-amino-6-fluoro-N-(4-(4-(methylsulfonyl)phenyl)pyridin-3-yl)pyrazolo[1,5-a]pyrimidine-3-carboxamide]", "Cisplatin Sensitization Assay": "+++ (Compounds with a Cisplatin sensitization value of <0.02 μM are marked with “+++.”)"}, {"smiles": "Cc1nccnc1-c1ccncc1NC(=O)c1c(N)nn2cc(F)cnc12", "note": "[I-C-62, 2-amino-6-fluoro-N-(4-(3-methylpyrazin-2-yl)pyridin-3-yl)pyrazolo[1,5-a]pyrimidine-3-carboxamide]", "Cisplatin Sensitization Assay": "++ (Compounds with a Cisplatin sensitization value >0.02 μM but <0.2 μM are marked with “++.”)"}, {"smiles": "Cc1nn(C)cc1-c1ccncc1NC(=O)c1c(N)nn2cc(F)cnc12", "note": "[I-C-63, 2-amino-N-(4-(1,3-dimethyl-1H-pyrazol-4-yl)pyridin-3-yl)-6-fluoropyrazolo[1,5-a]pyrimidine-3-carboxamide]", "Cisplatin Sensitization Assay": "+++ (Compounds with a Cisplatin sensitization value of <0.02 μM are marked with “+++.”)"}, {"smiles": "Nc1nn2cc(F)cnc2c1C(=O)Nc1cnccc1-c1ccc(S(=O)(=O)N2CCC2)cc1", "note": "[I-C-64, 2-amino-N-(4-(4-(azetidin-1-ylsulfonyl)phenyl)pyridin-3-yl)-6-fluoropyrazolo[1,5-a]pyrimidine-3-carboxamide]", "Cisplatin Sensitization Assay": "+++ (Compounds with a Cisplatin sensitization value of <0.02 μM are marked with “+++.”)"}, {"smiles": "Cn1ncnc1-c1ccncc1NC(=O)c1c(N)nn2cc(F)cnc12", "note": "[I-C-65, 2-amino-6-fluoro-N-(4-(1-methyl-1H-1,2,4-triazol-5-yl)pyridin-3-yl)pyrazolo[1,5-a]pyrimidine-3-carboxamide]", "Cisplatin Sensitization Assay": "++ (Compounds with a Cisplatin sensitization value >0.02 μM but <0.2 μM are marked with “++.”)"}, {"smiles": "CN1CCOC[C@@H]1c1ccc(-c2ccncc2NC(=O)c2c(N)nn3cc(F)cnc23)cc1", "note": "[I-C-66, (S)-2-amino-6-fluoro-N-(4-(4-(4-methylmorpholin-3-yl)phenyl)pyridin-3-yl)pyrazolo[1,5-a]pyrimidine-3-carboxamide]", "Cisplatin Sensitization Assay": "+++ (Compounds with a Cisplatin sensitization value of <0.02 μM are marked with “+++.”)"}, {"smiles": "Cc1cncnc1-c1ccncc1NC(=O)c1c(N)nn2cc(F)cnc12", "note": "[I-C-67, 2-amino-6-fluoro-N-(4-(5-methylpyrimidin-4-yl)pyridin-3-yl)pyrazolo[1,5-a]pyrimidine-3-carboxamide]", "Cisplatin Sensitization Assay": "++ (Compounds with a Cisplatin sensitization value >0.02 μM but <0.2 μM are marked with “++.”)"}, {"smiles": "Cn1ccc(-c2ccncc2NC(=O)c2c(N)nn3cc(F)cnc23)n1", "note": "[I-C-68, 2-amino-6-fluoro-N-(4-(1-methyl-1H-pyrazol-3-yl)pyridin-3-yl)pyrazolo[1,5-a]pyrimidine-3-carboxamide]", "Cisplatin Sensitization Assay": "+ (Compounds with a Cisplatin sensitization value >0.2 μM but <5 μM are marked with “+.”)"}, {"smiles": "CC(=O)N1CCC(c2ccncc2NC(=O)c2c(N)nn3cc(F)cnc23)CC1", "note": "[I-C-69, N-(4-(1-acetylpiperidin-4-yl)pyridin-3-yl)-2-amino-6-fluoropyrazolo[1,5-a]pyrimidine-3-carboxamide]", "Cisplatin Sensitization Assay": "+++ (Compounds with a Cisplatin sensitization value of <0.02 μM are marked with “+++.”)"}, {"smiles": "Nc1nn2cc(F)cnc2c1C(=O)Nc1cnccc1C1CCN(C(=O)C2CC2)CC1", "note": "[I-C-70, 2-amino-N-(4-(1-(cyclopropanecarbonyl)piperidin-4-yl)pyridin-3-yl)-6-fluoropyrazolo[1,5-a]pyrimidine-3-carboxamide]", "Cisplatin Sensitization Assay": "+++ (Compounds with a Cisplatin sensitization value of <0.02 μM are marked with “+++.”)"}, {"smiles": "N#CC1(C(=O)N2CCC(c3ccncc3NC(=O)c3c(N)nn4cc(F)cnc34)CC2)CC1", "note": "[I-C-71, 2-amino-N-(4-(1-(1-cyanocyclopropanecarbonyl)piperidin-4-yl)pyridin-3-yl)-6-fluoropyrazolo[1,5-a]pyrimidine-3-carboxamide]", "Cisplatin Sensitization Assay": "+++ (Compounds with a Cisplatin sensitization value of <0.02 μM are marked with “+++.”)"}, {"smiles": "Cn1nncc1-c1ccncc1NC(=O)c1c(N)nn2cc(F)cnc12", "note": "[I-C-72, 2-amino-6-fluoro-N-(4-(1-methyl-1H-1,2,3-triazol-5-yl)pyridin-3-yl)pyrazolo[1,5-a]pyrimidine-3-carboxamide]", "Cisplatin Sensitization Assay": "+++ (Compounds with a Cisplatin sensitization value of <0.02 μM are marked with “+++.”)"}, {"smiles": "CN1CCC(c2ccncc2NC(=O)c2c(N)nn3cc(F)cnc23)CC1=O", "note": "(stereo not drawn) [I-C-73, 2-amino-6-fluoro-N-(4-(1-methyl-2-oxopiperidin-4-yl)pyridin-3-yl)pyrazolo[1,5-a]pyrimidine-3-carboxamide]", "Cisplatin Sensitization Assay": "++ (Compounds with a Cisplatin sensitization value >0.02 μM but <0.2 μM are marked with “++.”)"}, {"smiles": "Cn1ccc2c(NC(=O)c3c(N)nn4cc(F)cnc34)cncc21", "note": "[I-C-74, 2-amino-6-fluoro-N-(1-methyl-1H-pyrrolo[2,3-c]pyridin-4-yl)pyrazolo[1,5-a]pyrimidine-3-carboxamide]", "Cisplatin Sensitization Assay": "+ (Compounds with a Cisplatin sensitization value >0.2 μM but <5 μM are marked with “+.”)"}, {"smiles": "Nc1nn2cc(F)cnc2c1C(=O)Nc1cnccc1C1CCOC1", "note": "(stereo not drawn) [I-C-75, 2-amino-6-fluoro-N-(4-(tetrahydrofuran-3-yl)pyridin-3-yl)pyrazolo[1,5-a]pyrimidine-3-carboxamide]", "Cisplatin Sensitization Assay": "++ (Compounds with a Cisplatin sensitization value >0.02 μM but <0.2 μM are marked with “++.”)"}, {"smiles": "Nc1nn2cc(F)cnc2c1C(=O)Nc1cnccc1CN1CCCC1=O", "note": "[I-C-76, 2-amino-6-fluoro-N-(4-((2-oxopyrrolidin-1-yl)methyl)pyridin-3-yl)pyrazolo[1,5-a]pyrimidine-3-carboxamide]", "Cisplatin Sensitization Assay": "+ (Compounds with a Cisplatin sensitization value >0.2 μM but <5 μM are marked with “+.”)"}, {"smiles": "Cc1ncc(-c2ccncc2NC(=O)c2c(N)nn3cc(F)cnc23)n1C", "note": "[I-C-77, 2-amino-N-(4-(1,2-dimethyl-1H-imidazol-5-yl)pyridin-3-yl)-6-fluoropyrazolo[1,5-a]pyrimidine-3-carboxamide]", "Cisplatin Sensitization Assay": "+++ (Compounds with a Cisplatin sensitization value of <0.02 μM are marked with “+++.”)"}, {"smiles": "Cc1ncn(C)c1-c1ccncc1NC(=O)c1c(N)nn2cc(F)cnc12", "note": "[I-C-78, 2-amino-N-(4-(1,4-dimethyl-1H-imidazol-5-yl)pyridin-3-yl)-6-fluoropyrazolo[1,5-a]pyrimidine-3-carboxamide]", "Cisplatin Sensitization Assay": "++ (Compounds with a Cisplatin sensitization value >0.02 μM but <0.2 μM are marked with “++.”)"}, {"smiles": "Cn1cncc1-c1c(F)cncc1NC(=O)c1c(N)nn2cc(F)cnc12", "note": "[I-C-79, 2-amino-6-fluoro-N-(5-fluoro-4-(1-methyl-1H-imidazol-5-yl)pyridin-3-yl)pyrazolo[1,5-a]pyrimidine-3-carboxamide]", "Cisplatin Sensitization Assay": "+++ (Compounds with a Cisplatin sensitization value of <0.02 μM are marked with “+++.”)"}, {"smiles": "CCn1cncc1-c1ccncc1NC(=O)c1c(N)nn2cc(F)cnc12", "note": "[I-C-80, 2-amino-N-(4-(1-ethyl-1H-imidazol-5-yl)pyridin-3-yl)-6-fluoropyrazolo[1,5-a]pyrimidine-3-carboxamide]", "Cisplatin Sensitization Assay": "+++ (Compounds with a Cisplatin sensitization value of <0.02 μM are marked with “+++.”)"}, {"smiles": "COc1cncc(NC(=O)c2c(N)nn3cc(F)cnc23)c1-c1cncn1C", "note": "[I-C-81, 2-amino-6-fluoro-N-(5-methoxy-4-(1-methyl-1H-imidazol-5-yl)pyridin-3-yl)pyrazolo[1,5-a]pyrimidine-3-carboxamide]", "Cisplatin Sensitization Assay": "+++ (Compounds with a Cisplatin sensitization value of <0.02 μM are marked with “+++.”)"}, {"smiles": "COc1cncc(NC(=O)c2c(N)nn3cc(F)cnc23)c1-c1cccnc1", "note": "[I-C-82, 2-amino-6-fluoro-N-(5′-methoxy-[3,4′-bipyridin]-3′-yl)pyrazolo[1,5-a]pyrimidine-3-carboxamide]", "Cisplatin Sensitization Assay": "+++ (Compounds with a Cisplatin sensitization value of <0.02 μM are marked with “+++.”)"}, {"smiles": "COCCn1cncc1-c1ccncc1NC(=O)c1c(N)nn2cc(F)cnc12", "note": "[I-C-83, 2-amino-6-fluoro-N-(4-(1-(2-methoxyethyl)-1H-imidazol-5-yl)pyridin-3-yl)pyrazolo[1,5-a]pyrimidine-3-carboxamide]", "Cisplatin Sensitization Assay": "++ (Compounds with a Cisplatin sensitization value >0.02 μM but <0.2 μM are marked with “++.”)"}]}]}
